Measurements published in ChEMBL document CHEMBL5512659, “Structure optimizing of flavonoids against both MRSA and VRE” (Eur J Med Chem, 2024).
Values after ≈ are worked out from the molar mass of the structure shown. Active and inactive are the calls of the source. No cut-off for these calls is given here.

Tests used:
Staphylococcus aureus [1] = assay: Antibacterial activity against methicillin resistant Staphylococcus aureus clinical isolate 003 infected in cyclophosphamide immunosuppressed mouse model of skin wound infection assessed as reduction in bacterial load in wound at 5 mg/kg administered for 7 days and measured on day 8 (reference value: 1.6 x 10^8 CFU); format: functional; details: time 8 day
Enterococcus faecalis [2] = assay: Antibacterial activity against multidrug resistant Enterococcus faecalis ATCC 51299; format: functional
Enterococcus faecalis [3] = assay: Antibiofilm activity in multidrug resistant Enterococcus faecalis ATCC 51299 by crystal violet staining based analysis; format: functional
Staphylococcus aureus [4] = assay: Antibiofilm activity in methicillin resistant Staphylococcus aureus clinical isolate 003 by crystal violet staining based analysis; format: functional
Enterococcus faecalis [5] = assay: Antibacterial activity against Enterococcus faecalis clinical isolate 13; format: functional
Staphylococcus aureus [6] = assay: Antibacterial activity against methicillin resistant Staphylococcus aureus clinical isolate 003 infected in cyclophosphamide immunosuppressed mouse model of skin wound infection assessed as wound healing at 5 mg/kg administered for 7 days and measured on day 8; format: functional, organism-based; details: time 8.0 day
[7] = Toxicity in Galleria mellonella assessed as survival rate at 10 mg/kg observed after 7 days; format: organism-based; details: in vivo, time 7 day
Staphylococcus aureus [8] = assay: Antibacterial activity against methicillin resistant Staphylococcus aureus clinical isolate 031; format: functional
Enterococcus faecalis [9] = assay: Antibacterial activity against multidrug resistant Enterococcus faecalis ATCC 51299 infected in cyclophosphamide immunosuppressed mouse model of abdominal infection assessed as eradication of bacterial colonies in ascites at 5 mg/kg measured after 60 hrs relative to control; format: functional
Enterococcus faecalis [10] = assay: Antibacterial activity against multidrug resistant Enterococcus faecalis ATCC 51299 infected in cyclophosphamide immunosuppressed mouse model of abdominal infection assessed as eradication of bacterial colonies in kidney at 5 mg/kg measured after 60 hrs relative to control; format: functional
Staphylococcus aureus [11] = assay: Antibacterial activity against Staphylococcus aureus clinical isolate 31; format: functional
Staphylococcus aureus [12] = assay: Antibacterial activity against methicillin resistant Staphylococcus aureus clinical isolate 011; format: functional
Enterococcus faecalis [13] = assay: Antibacterial activity against Enterococcus faecalis clinical isolate 7; format: functional
Staphylococcus aureus [14] = assay: Antibacterial activity against Staphylococcus aureus clinical isolate 29; format: functional
Staphylococcus aureus [15] = assay: Antibacterial activity against methicillin resistant Staphylococcus aureus clinical isolate 003; format: functional
Enterococcus faecalis [16] = assay: Antibacterial activity against multidrug resistant Enterococcus faecalis ATCC 51299 infected in cyclophosphamide immunosuppressed mouse model of abdominal infection assessed as eradication of bacterial colonies in liver at 5 mg/kg measured after 60 hrs relative to control; format: functional
Enterococcus faecalis [17] = assay: Antibacterial activity against multidrug resistant Enterococcus faecalis ATCC 51299 assessed as resistance development by measuring fold increase in MIC measured after 20 passages; format: functional
Enterococcus faecalis [18] = assay: Antibacterial activity against multidrug resistant Enterococcus faecalis ATCC 51299 infected in cyclophosphamide immunosuppressed mouse model of abdominal infection assessed as eradication of bacterial colonies in spleen at 5 mg/kg measured after 60 hrs relative to control; format: functional

Compound	Activity (Staphylococcus aureus [1])	MIC (Enterococcus faecalis [2])	MBEC (Enterococcus faecalis [3])	MBEC (Staphylococcus aureus [4])	MIC (Enterococcus faecalis [5])	Activity (Staphylococcus aureus [6])	survival at 168 h [7]	MIC (Staphylococcus aureus [8])	Activity (Enterococcus faecalis [9])	Activity (Enterococcus faecalis [10])	MIC (Staphylococcus aureus [11])	MIC (Staphylococcus aureus [12])	MIC (Enterococcus faecalis [13])	MIC (Staphylococcus aureus [14])	MIC (Staphylococcus aureus [15])	Activity (Enterococcus faecalis [16])	fold change (FC) (Enterococcus faecalis [17])	Activity (Enterococcus faecalis [18])
CN[C@H](CC(C)C)C(=O)N[C@H]1C(=O)N[C@@H](CC(N)=O)C(=O)N[C@H]2C(=O)N[C@H]3C(=O)N[C@H](C(=O)N[C@H](C(=O)O)c4cc(O)cc(O)c4-c4cc3ccc4O)[C@H](O)c3ccc(c(Cl)c3)Oc3cc2cc(c3O[C@@H]2O[C@H](CO)[C@@H](O)[C@H](O)[C@H]2O[C@H]2C[C@](C)(N)[C@H](O)[C@H](C)O2)Oc2ccc(cc2Cl)[C@H]1O [VANCOMYCIN]	5.1 10^6CFU	> 128 µg/mL	>256 µg/mL	>256 µg/mL	2 µg/mL (≈ 1.38 µM)	Active	80%	–	–	–	–	–	–	–	–	–	–	–
CC1(C)S[C@@H]2[C@H](NC(=O)[C@H](N)c3ccccc3)C(=O)N2[C@H]1C(=O)O [AMPICILLIN]	–	2 µg/mL (≈ 5.72 µM)	>256 µg/mL	>256 µg/mL	2 µg/mL (≈ 5.72 µM)	–	–	> 128 µg/mL	89.18%	95.99%	2 µg/mL (≈ 5.72 µM)	> 128 µg/mL	2 µg/mL (≈ 5.72 µM)	2 µg/mL (≈ 5.72 µM)	> 128 µg/mL	90.58%	16	83.11%
CCCCCCc1c(-c2ccc(O)cc2O)oc2cc(OC)cc(O)c2c1=O	–	8 µg/mL (≈ 20.8 µM)	–	–	8 µg/mL (≈ 20.8 µM)	–	–	4 µg/mL (≈ 10.4 µM)	–	–	4 µg/mL (≈ 10.4 µM)	4 µg/mL (≈ 10.4 µM)	4 µg/mL (≈ 10.4 µM)	4 µg/mL (≈ 10.4 µM)	4 µg/mL (≈ 10.4 µM)	–	–	–
CCCCCCc1c(-c2ccc(OCC(=O)CN[C@H](CCCNC(=N)N)C(N)=O)cc2OCC(=O)CN[C@H](CCCNC(=N)N)C(N)=O)oc2cc(OC)cc(O)c2c1=O	–	> 64 µg/mL	–	–	> 64 µg/mL	–	–	8 µg/mL (≈ 9.54 µM)	–	–	8 µg/mL (≈ 9.54 µM)	32 µg/mL (≈ 38.1 µM)	> 64 µg/mL	32 µg/mL (≈ 38.1 µM)	8 µg/mL (≈ 9.54 µM)	–	–	–
CCCCCCc1c(-c2ccc(OCCCCN3CCCCC3)cc2OCCCCN2CCCCC2)oc2cc(OC)cc(O)c2c1=O	–	2 µg/mL (≈ 3.02 µM)	–	–	1 µg/mL (≈ 1.51 µM)	–	–	2 µg/mL (≈ 3.02 µM)	–	–	1 µg/mL (≈ 1.51 µM)	1 µg/mL (≈ 1.51 µM)	2 µg/mL (≈ 3.02 µM)	2 µg/mL (≈ 3.02 µM)	2 µg/mL (≈ 3.02 µM)	–	–	–
CCCCCCc1c(-c2ccc(OCCCCNCC)cc2OCCCCNCC)oc2cc(OC)cc(O)c2c1=O	–	2 µg/mL (≈ 3.43 µM)	–	–	1 µg/mL (≈ 1.72 µM)	–	–	2 µg/mL (≈ 3.43 µM)	–	–	1 µg/mL (≈ 1.72 µM)	2 µg/mL (≈ 3.43 µM)	2 µg/mL (≈ 3.43 µM)	2 µg/mL (≈ 3.43 µM)	1 µg/mL (≈ 1.72 µM)	–	–	–
CCCCCCc1c(-c2ccc(OCCCCNCCCCCCCCN)cc2OCCCCNCCCCCCCCN)oc2cc(OC)cc(O)c2c1=O	–	1 µg/mL (≈ 1.28 µM)	–	–	1 µg/mL (≈ 1.28 µM)	–	–	1 µg/mL (≈ 1.28 µM)	–	–	0.5 µg/mL (≈ 0.64 µM)	1 µg/mL (≈ 1.28 µM)	1 µg/mL (≈ 1.28 µM)	1 µg/mL (≈ 1.28 µM)	0.5 µg/mL (≈ 0.64 µM)	–	–	–
CCCCCCc1c(-c2ccc(OCCCCCCN(C)C)cc2OCCCCCCN(C)C)oc2cc(OC)cc(O)c2c1=O	–	4 µg/mL (≈ 6.26 µM)	–	–	1 µg/mL (≈ 1.57 µM)	–	–	2 µg/mL (≈ 3.13 µM)	–	–	2 µg/mL (≈ 3.13 µM)	4 µg/mL (≈ 6.26 µM)	4 µg/mL (≈ 6.26 µM)	2 µg/mL (≈ 3.13 µM)	2 µg/mL (≈ 3.13 µM)	–	–	–
